The numbers were not newly measured in patent publication US8623868B2, “Processes of making and using pharmaceutical formulations of antineoplastic agents” (Merck Sharp & Dohme Corp., priority 2002, dated 2014), which cites them from elsewhere.

In series [1] the test system is advanced melanoma. The note with it: patients having advanced melanoma; Newlands et al., Br J Cancer 1992.
Series [2] has as its system advanced melanoma. The following applies: patients with advanced melanoma; Journal of Clinical Oncology 13(4) 1995.

Take `Cn1nnc2c(C(N)=O)ncn2c1=O` [Temozolomide]: the water solubility entry is listed as “water-insoluble”. Moreover, the “clinical responses achieved, % of patients” value in the series on advanced melanoma [1] was 17%. Also, the “clinical response achieved, % of patients” value in the series on advanced melanoma [2] is reported as 21%.
